Assay results taken from ChEMBL document CHEMBL1201862, “PubChem BioAssay data set” (2004).
Calls of active or inactive are those of the source.

Key:
[1] = microbe, parasite or virus in culture; type: functional; conditions: Mycobacterium tuberculosis
[2] = target: T1, Endoribonuclease toxin MazF (Escherichia coli K-12, UniProt P0AE70); assay: activation of MazEF endoribonuclease cleavage – biochemical, fluorescence, single-stranded RNA substrate, uHTS hits, dose response (AID 588481); type: functional
T1 sequence (P0AE70 whole entry): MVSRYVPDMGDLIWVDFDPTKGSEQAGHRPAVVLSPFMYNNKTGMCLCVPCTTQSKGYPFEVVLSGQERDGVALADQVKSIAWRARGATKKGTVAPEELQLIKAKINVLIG

[3] = target: T1, Endoribonuclease toxin MazF; assay: substrate-only fluorescence increase artefacts – biochemical, single-stranded RNase substrate, counter-screen for MazEF activator project, dose response (AID 588502); type: functional
[4] = target: T2, Apoptotic protease-activating factor 1 (Homo sapiens, UniProt O14727); type: functional
T2 sequence (O14727 whole entry): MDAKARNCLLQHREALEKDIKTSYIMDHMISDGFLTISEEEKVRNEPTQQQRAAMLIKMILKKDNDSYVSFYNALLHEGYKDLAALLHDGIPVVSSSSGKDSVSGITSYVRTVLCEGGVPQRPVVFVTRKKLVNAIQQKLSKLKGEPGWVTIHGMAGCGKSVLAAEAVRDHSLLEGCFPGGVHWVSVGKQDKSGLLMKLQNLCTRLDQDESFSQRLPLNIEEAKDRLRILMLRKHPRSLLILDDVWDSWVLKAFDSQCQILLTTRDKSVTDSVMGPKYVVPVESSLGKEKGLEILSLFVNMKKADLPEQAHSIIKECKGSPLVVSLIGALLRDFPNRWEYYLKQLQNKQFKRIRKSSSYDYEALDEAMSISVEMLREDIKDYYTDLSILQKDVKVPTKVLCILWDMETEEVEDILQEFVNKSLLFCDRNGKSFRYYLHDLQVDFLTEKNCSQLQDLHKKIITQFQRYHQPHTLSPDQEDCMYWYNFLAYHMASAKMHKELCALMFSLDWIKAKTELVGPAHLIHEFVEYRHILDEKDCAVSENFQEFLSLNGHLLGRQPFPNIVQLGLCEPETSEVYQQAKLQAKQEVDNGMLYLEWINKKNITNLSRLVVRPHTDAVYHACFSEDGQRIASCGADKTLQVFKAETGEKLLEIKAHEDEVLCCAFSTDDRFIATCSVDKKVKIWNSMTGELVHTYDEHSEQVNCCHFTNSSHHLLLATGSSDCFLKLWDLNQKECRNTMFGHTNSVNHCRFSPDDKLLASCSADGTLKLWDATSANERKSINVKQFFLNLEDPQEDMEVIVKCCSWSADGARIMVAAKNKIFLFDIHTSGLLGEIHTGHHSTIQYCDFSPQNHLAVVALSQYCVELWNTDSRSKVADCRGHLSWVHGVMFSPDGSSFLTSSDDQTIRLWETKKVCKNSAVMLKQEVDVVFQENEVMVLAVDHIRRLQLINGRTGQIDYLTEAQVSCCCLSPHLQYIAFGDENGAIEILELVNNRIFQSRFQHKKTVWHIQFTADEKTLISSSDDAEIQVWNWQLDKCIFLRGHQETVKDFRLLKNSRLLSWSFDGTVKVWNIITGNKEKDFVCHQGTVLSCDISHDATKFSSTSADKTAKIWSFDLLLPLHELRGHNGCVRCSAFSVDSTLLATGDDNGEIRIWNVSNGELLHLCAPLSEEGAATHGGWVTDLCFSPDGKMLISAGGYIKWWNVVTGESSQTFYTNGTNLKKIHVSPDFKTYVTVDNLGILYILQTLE

Genome polyprotein = Genome polyprotein (dengue virus type 2, UniProt P29990); assay: flavivirus cap methylation enzyme inhibition – biochemical, confirmation dose response, primary screen (AID 588689); type: functional
Sequence of Genome polyprotein (P29990 2492-3391 limits assumed): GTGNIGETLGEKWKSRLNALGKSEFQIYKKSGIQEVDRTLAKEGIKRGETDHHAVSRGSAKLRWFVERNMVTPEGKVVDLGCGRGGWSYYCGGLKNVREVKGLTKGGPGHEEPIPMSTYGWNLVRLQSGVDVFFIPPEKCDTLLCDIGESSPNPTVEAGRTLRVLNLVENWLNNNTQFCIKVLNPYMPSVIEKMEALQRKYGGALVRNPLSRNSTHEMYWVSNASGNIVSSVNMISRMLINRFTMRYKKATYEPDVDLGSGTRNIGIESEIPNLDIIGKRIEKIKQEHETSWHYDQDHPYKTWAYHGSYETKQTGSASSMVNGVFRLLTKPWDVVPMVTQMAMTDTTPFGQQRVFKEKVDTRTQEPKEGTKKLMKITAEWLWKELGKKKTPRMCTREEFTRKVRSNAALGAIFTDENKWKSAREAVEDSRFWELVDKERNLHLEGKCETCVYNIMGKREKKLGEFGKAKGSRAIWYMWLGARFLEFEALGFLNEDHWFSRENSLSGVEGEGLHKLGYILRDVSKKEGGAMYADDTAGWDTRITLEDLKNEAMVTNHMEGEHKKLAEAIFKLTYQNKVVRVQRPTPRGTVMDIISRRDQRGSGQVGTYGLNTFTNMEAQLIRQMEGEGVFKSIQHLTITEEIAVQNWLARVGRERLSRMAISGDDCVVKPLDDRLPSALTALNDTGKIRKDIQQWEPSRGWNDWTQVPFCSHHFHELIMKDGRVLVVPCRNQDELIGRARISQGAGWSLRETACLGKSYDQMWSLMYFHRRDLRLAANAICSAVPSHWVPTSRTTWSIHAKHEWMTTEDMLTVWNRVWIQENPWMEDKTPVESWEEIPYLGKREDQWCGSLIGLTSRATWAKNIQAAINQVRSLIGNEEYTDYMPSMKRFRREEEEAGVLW

[5] = target: T3, RNA-binding protein pos-1 (Caenorhabditis elegans, UniProt G5EF15); assay: disruptors of C. elegans POS-1 RNA interaction – biochemical, fluorescence polarization, dose response (AID 1964);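 further: purified POS-1 fused to maltose binding protein made in E. coli; potency of compounds blocking POS-1 binding to fluorescent RNA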
T3 sequence (G5EF15 whole entry): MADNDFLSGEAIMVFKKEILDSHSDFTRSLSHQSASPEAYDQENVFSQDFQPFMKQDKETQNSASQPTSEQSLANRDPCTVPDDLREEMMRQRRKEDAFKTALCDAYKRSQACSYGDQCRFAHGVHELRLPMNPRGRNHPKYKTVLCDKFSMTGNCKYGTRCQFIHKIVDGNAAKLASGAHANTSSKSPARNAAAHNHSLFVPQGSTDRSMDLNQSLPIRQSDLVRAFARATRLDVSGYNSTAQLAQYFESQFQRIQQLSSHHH

[6] = target: T4, Zinc finger protein mex-5 (Caenorhabditis elegans, UniProt Q9XUB2); assay: potency of MEX-5 RNA-binding blockers – biochemical, C. elegans, fluorescence polarization, dose response (AID 1960)
T4 sequence (Q9XUB2 whole entry): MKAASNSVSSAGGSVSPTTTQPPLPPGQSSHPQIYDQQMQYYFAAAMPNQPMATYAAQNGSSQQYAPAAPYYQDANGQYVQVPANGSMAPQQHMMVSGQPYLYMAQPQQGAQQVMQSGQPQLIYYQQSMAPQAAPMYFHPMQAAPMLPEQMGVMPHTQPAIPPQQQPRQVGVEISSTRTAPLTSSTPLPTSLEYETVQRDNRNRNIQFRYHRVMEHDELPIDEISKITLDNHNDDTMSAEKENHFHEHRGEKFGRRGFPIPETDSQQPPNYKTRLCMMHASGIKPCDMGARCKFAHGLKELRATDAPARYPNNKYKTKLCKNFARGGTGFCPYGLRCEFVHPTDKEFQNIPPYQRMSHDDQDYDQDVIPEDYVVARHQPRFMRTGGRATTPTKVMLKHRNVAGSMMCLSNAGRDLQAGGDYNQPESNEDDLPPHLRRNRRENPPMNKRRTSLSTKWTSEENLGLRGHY

Coagulation factor XII = target: T5, Coagulation factor XII (Homo sapiens, UniProt P00748); type: functional;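 further: activated factor XIIa alpha cleaving a fluorogenic AMC peptide substrate; inhibitor potency from loss of enzyme activity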
T5 sequence (P00748 whole entry): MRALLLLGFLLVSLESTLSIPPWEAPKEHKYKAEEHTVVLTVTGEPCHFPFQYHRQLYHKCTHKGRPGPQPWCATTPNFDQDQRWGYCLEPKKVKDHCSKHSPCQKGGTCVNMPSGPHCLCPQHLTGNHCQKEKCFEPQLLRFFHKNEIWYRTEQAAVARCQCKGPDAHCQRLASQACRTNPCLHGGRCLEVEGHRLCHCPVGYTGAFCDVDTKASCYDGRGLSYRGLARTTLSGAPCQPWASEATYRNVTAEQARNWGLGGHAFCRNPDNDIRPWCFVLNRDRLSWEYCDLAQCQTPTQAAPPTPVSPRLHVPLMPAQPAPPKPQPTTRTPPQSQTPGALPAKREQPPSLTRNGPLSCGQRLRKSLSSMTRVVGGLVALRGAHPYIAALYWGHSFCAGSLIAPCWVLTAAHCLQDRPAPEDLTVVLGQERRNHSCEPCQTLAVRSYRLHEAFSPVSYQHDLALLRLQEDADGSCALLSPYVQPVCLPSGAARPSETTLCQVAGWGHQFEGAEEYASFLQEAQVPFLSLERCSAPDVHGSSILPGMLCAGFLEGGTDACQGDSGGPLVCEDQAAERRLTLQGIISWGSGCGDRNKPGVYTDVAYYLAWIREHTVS

[7] = target: T6, Probable nicotinate-nucleotide adenylyltransferase (Staphylococcus aureus (strain N315), UniProt P65502); type: functional, Staphylococcus aureus subsp. aureus N315;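 on IC50 Mean: confirmatory dose-response retesting of NadD inhibitor hits first found in an ultra-high-throughput screen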
T6 sequence (P65502 whole entry): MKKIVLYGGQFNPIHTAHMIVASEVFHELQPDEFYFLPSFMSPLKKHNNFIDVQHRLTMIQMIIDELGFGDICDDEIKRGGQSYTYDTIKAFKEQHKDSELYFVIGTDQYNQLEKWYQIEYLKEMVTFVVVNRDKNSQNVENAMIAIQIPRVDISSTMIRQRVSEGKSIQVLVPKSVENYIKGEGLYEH

[8] = target: T6, Probable nicotinate-nucleotide adenylyltransferase; type: functional, Staphylococcus aureus subsp. aureus N315; conditions: read-out: IC50_Mean
[9] = target: T7, High affinity choline transporter 1 (Homo sapiens, UniProt Q9GZV3); assay: human choline transporter blockers, potency – cell-based, 5-point CRC, membrane potential dye, dose response (AID 504840); type: functional
T7 sequence (Q9GZV3 whole entry): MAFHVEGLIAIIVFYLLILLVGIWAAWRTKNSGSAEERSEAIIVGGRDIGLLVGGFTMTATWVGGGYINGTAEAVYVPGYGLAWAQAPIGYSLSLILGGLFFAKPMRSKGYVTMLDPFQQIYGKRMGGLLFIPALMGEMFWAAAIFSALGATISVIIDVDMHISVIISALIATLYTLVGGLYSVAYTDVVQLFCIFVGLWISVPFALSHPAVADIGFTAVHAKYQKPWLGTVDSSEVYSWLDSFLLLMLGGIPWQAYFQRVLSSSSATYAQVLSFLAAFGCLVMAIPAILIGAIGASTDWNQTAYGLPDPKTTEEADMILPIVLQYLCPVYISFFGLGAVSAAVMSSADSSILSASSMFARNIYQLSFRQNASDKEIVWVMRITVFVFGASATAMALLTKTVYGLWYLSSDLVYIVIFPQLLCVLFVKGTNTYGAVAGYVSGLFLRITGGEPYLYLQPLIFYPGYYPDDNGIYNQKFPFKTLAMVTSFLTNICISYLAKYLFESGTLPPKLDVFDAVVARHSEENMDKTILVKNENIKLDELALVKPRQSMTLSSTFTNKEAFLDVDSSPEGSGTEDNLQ

[10] = target: T8, Adenosylmethionine-8-amino-7-oxononanoate aminotransferase (Mycobacterium tuberculosis, UniProt P9WQ81); assay: Mycobacterium tuberculosis BioA enzyme inhibitor Measured in Biochemical System Using Plate Reader - 2163-02_Inhibitor_Dose_CherryPick_Activity.; type: functional, Mycobacterium tuberculosis UT205
T8 sequence (P9WQ81 whole entry): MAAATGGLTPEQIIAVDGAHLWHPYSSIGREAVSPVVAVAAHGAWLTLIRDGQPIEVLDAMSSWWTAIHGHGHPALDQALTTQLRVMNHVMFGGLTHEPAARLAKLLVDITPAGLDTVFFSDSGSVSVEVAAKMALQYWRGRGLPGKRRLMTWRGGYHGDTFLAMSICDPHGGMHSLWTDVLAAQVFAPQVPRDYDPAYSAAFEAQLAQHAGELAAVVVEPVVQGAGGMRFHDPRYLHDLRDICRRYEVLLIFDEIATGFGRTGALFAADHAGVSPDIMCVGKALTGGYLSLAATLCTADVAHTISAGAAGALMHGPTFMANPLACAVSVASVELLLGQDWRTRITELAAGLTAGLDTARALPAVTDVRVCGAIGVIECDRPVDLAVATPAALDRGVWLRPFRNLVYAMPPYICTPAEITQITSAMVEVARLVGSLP

[11] = HEK-293T viability loss after treatment – luminescence, T-cell screen hits, cytotoxicity control for TCR NF-kB inhibitor project, dose response (AID 489026); type: functional, cell-based;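 further: cells exposed to compound about 14 hours before the viability readout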
[12] = target: T9, Microphthalmia-associated transcription factor (Homo sapiens, UniProt O75030); assay: reducers of TRPM1 reporter luminescence, concentration series – cell-based, SK-MEL-5, cherry-picked, set 3, MITF inhibitor project, dose response (AID 493073); type: functional;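 further: SK-MEL-5 melanoma cells with luciferase driven by the MITF target TRPM1 promoter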
T9 sequence (O75030 whole entry): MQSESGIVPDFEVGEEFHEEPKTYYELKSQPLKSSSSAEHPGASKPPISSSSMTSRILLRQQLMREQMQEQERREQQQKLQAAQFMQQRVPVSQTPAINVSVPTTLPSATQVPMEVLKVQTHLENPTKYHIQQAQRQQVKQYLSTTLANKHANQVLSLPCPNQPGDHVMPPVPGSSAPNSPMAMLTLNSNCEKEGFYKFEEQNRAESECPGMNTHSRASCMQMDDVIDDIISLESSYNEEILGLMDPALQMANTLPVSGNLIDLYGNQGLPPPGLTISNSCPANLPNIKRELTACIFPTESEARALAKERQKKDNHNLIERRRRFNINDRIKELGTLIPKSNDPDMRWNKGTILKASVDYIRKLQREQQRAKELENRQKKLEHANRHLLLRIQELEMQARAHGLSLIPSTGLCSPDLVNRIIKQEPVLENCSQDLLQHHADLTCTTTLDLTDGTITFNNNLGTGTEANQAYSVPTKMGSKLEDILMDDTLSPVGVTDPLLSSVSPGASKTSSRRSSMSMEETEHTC

[13] = activation of miR-122 Renilla sensor silencing – cell-based, Huh7 psiCHECK-miR122, Renilla luciferase, cherry-picked, dose response (AID 651956); type: functional;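 further: huh7 hepatoma cells stably carrying a psiCHECK-2 miR-122 sensor plasmid; renilla luciferase signal reporting endogenous miR-122 activity after 48 h compound exposure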

## CC(C)OC(=O)/C(C#N)=C/c1ccc(-c2ccc(SC(F)F)cc2)o1
[1]
  CC50: > 40 µM (active)
[2]
  EC50: > 99 µM (inactive)
[3]
  EC50: 11.9 µM (active)

## COC(=O)CCC(=O)OC1(C)C(=O)C2=CN(CC3CC3)C(c3ccc(OC)cc3)=CC2=C(Br)C1=O (stereo not given)
[4]
  IC50: 31.7 µM (active)
Genome polyprotein
  IC50: 30.5 µM (active)

## COc1ccc(N/C=C\C(=O)c2ccc(C)cc2)cc1OC
[5]
  EC50: > 300 µM (not active)
[6]
  EC50: > 300 µM (not active)
[2]
  EC50: > 99 µM (inactive)
[3]
  EC50: 25 µM (inactive)

## O=C(NCCN1C(=O)C2C3C=CC(C3)C2C1=O)Nc1ccccc1 (stereo not given)
Coagulation factor XII
  IC50: > 50 µM (inactive)

## CN(C(=O)Oc1cccc2cccnc12)c1ccccc1
Coagulation factor XII
  IC50: > 50 µM (inactive)

## C/C=C\C=C/C(=O)Nc1cccc(C2=NOC3(C2)C[C@@H](C(N)=O)N(C(=O)COc2ccc(Cl)cc2)C3)c1 (stereo not given in full)
[7]
  IC50: 10.7 µM (active)
[8]
  IC50: 17.3 µM (active)

## CCN(CC)CCNC(=O)c1cn(CC)c2ccc(S(=O)(=O)N3CCc4ccccc4C3)cc2c1=O
[9]
  IC50: 11.2 µM (active)
[10]
  AC50: 2.88 µM (active)

## COc1cc(-c2noc(C)c2C#Cc2ccsc2)cc(OC)c1OC
[11]
  IC50: > 80 µM (inactive)

## CCOC(=O)Cn1/c(=N/C(=O)c2ccc([N+](=O)[O-])s2)sc2ccccc21
[12]
  AC50: 3.5 µM (active)
[2]
  EC50: > 99 µM (inactive)
[3]
  EC50: > 99 µM (inactive)

## COc1cc(C(=O)N2Cc3cc4ccccc4nc3C2C)cc(OC)c1OC (stereo not given)
[10]
  AC50: 2.01 µM (active)

## CC(=O)N(C[C@H]1N[C@H](CO)[C@@H]1c1ccc(-c2ccccc2)cc1)C(C)C
[13]
  AC50: 23.3 µM (active)

## COc1ccc(OCCNc2c([N+](=O)[O-])c(=O)oc3ccccc23)cc1
[4]
  IC50: 4.61 µM (active)

## Cc1ccc(C(=O)Nc2cccc(C(=O)N/N=C/c3ccc(F)cc3)c2)cc1
[2]
  EC50: 41.1 µM (inactive)
[3]
  EC50: > 99 µM (inactive)

## COc1cc2c(cc1O)CC[C@@H]1[C@@H]2CC[C@]2(C)[C@@H](O)CC[C@@H]12 [2-METHOXYESTRADIOL]
[11]
  IC50: > 80 µM (inactive)
